SMILES	melting point
CC(C)CC(C)c1ccccc1NC(=O)c1cn(C)cc1C(F)(F)F (centres unmarked)	83 to 85 °C
COCn1cc(C(=O)Nc2ccccc2C(C)CC(C)C)c(C(F)(F)F)c1 (centres unmarked)	75 to 77 °C

Source: patent US7105565B2 (dated 2006)
